pEC50: −log10 of the molar value. The source made the active and inactive calls.
Legend:
HepG2 [1] = assay: Induction of ROS generation in human HepG2 cells at 25 uM after 15 to 30 mins using H2DCFH dye by confocal microscopy in presence of PEG-catalase; type: functional, cell-based
HepG2 [2] = assay: Increase of SAPK/JNK phosphorylation in human doxorubicin-resistant HepG2 cells expressing p-gp at 1.56 to 25 uM by Western blot analysis in presence of NAC; type: cell-based
HepG2 [3] = assay: Induction of oxidative stress in human HepG2 cells assessed as decrease of GSH level per gram of protein at 25 uM after 24 hrs using DTNB by enzymatic kinetic method relative to control; type: functional
HepG2 [4] = assay: Induction of necrosis in human HepG2 cells assessed as LDH leakage at 25 uM after 24 hrs; type: functional, cell-based
HepG2 [5] = assay: Induction of apoptosis in human HepG2 cells assessed as increase in PARP cleavage after 24 hrs by Western blotting; type: functional, cell-based
HepG2 [6] = assay: Increase of SAPK/JNK phosphorylation in human doxorubicin-resistant HepG2 cells expressing p-gp at 1.56 to 25 uM by Western blot analysis; type: cell-based
[7] = biological target: T1, MAP kinase p38 (Homo sapiens) (UniProt O15264+Q15759+Q16539+P53778); assay: Inhibition of p38 MAPK phosphorylation in human doxorubicin-resistant HepG2 cells expressing p-gp at 1.56 to 25 uM by Western blot analysis in presence of NAC; type: cell-based
[8] = biological target: T1, MAP kinase p38 (Homo sapiens); assay: Inhibition of p38 MAPK phosphorylation in human HepG2 cells at 1.56 to 25 uM by Western blot analysis in presence of SB203580; type: cell-based
HepG2 [9] = assay: Induction of oxidative stress in human doxorubicin-resistant HepG2 cells expressing p-gp assessed as decrease of GSSG level per gram of protein at 25 uM after 24 hrs using DTNB by enzymatic kinetic method relative to control; type: functional, cell-based
HepG2 [10] = assay: Increase of SAPK/JNK phosphorylation in human HepG2 cells at 1.56 to 25 uM by Western blot analysis; type: cell-based
HepG2 [11] = assay: Induction of necrosis in human doxorubicin-resistant HepG2 cells expressing p-gp assessed as LDH leakage at >50 uM after 24 hrs; type: functional, cell-based
HepG2 [12] = assay: Effect on nonphosphorylated SAPK/JNK level in human HepG2 cells at 25 uM by Western blot analysis; type: ADME, cell-based; conditions: hepg2, 25 µM
HepG2 [13] = assay: Induction of apoptosis in human HepG2 cells assessed as activation of caspase-3/8/9 after 24 hrs by Western blotting; type: functional, cell-based
HepG2 [14] = assay: Induction of oxidative stress in human doxorubicin-resistant HepG2 cells expressing p-gp assessed as decrease of GSH level per gram of protein at 1.56 to 3.12 uM after 24 hrs using DTNB by enzymatic kinetic method relative to control; type: functional, cell-based
HepG2 [15] = assay: Competitive inhibition of p-glycoprotein in doxorubicin-resistant human HepG2 cells assessed as reduction of doxorubicin efflux after 1 hr by primary Lineweaver-Burk plot analysis; type: cell-based
HepG2 [16] = assay: Induction of necrosis in human HepG2 cells assessed as LDH leakage at >50 uM after 24 hrs; type: functional, cell-based
[17] = biological target: ATP-dependent translocase ABCB1 (Homo sapiens, UniProt P08183); assay: Inhibition of p-glycoprotein in human doxorubicin-resistant HepG2 cells assessed as reduction of doxorubicin efflux after 1 hr by flow cytometry; type: cell-based; conditions: hepg2, 1 h
HepG2 [18] = assay: Induction of oxidative stress in human doxorubicin-resistant HepG2 cells expressing p-gp assessed as decrease of GSH level per gram of protein at 25 uM after 24 hrs using DTNB by enzymatic kinetic method relative to control; type: functional
HepG2 [19] = assay: Cytotoxicity against human doxorubicin-resistant HepG2 cells expressing p-gp assessed as combination index after 24 hrs by MTT assay in presence of doxorubicin; type: functional
HepG2 [20] = assay: Induction of ROS generation in human doxorubicin-resistant HepG2 cells expressing p-gp at 25 uM after 15 mins using H2DCFH dye by confocal microscopy; type: functional, cell-based
[21] = biological target: Mitogen-activated protein kinase; ERK1/ERK2 (Homo sapiens) (UniProt P27361+P28482); assay: Inhibition of ERK1/2 phosphorylation in human doxorubicin-resistant HepG2 cells expressing p-gp at 1.56 to 25 uM by Western blot analysis; type: cell-based
HepG2 [22] = assay: Induction of oxidative stress in human doxorubicin-resistant HepG2 cells expressing p-gp assessed as increase of GSH/GSSG ratio at 1.56 to 3.12 uM after 24 hrs using DTNB by enzymatic kinetic method; type: functional, cell-based
HepG2 [23] = assay: Induction of apoptosis in human doxorubicin-resistant HepG2 cells expressing p-gp assessed as activation of caspase-3/8/9 at 12.5 after 24 hrs by Western blotting in presence of Z-VAD-FMK; type: functional, cell-based
HepG2 [24] = assay: Induction of oxidative stress in human HepG2 cells assessed as decrease of GSSG level per gram of protein at 25 uM after 24 hrs using DTNB by enzymatic kinetic method relative to control; type: functional
HepG2 [25] = assay: Induction of apoptosis in human doxorubicin-resistant HepG2 cells expressing p-gp assessed as increase in PARP cleavage after 24 hrs by Western blotting; type: functional, cell-based
HepG2 [26] = assay: Effect on nonphosphorylated ERK1/ERK2 level in human HepG2 cells at 25 uM by Western blot analysis; type: ADME, cell-based; conditions: hepg2, 25 µM
HepG2 [27] = assay: Cytotoxicity against human doxorubicin-resistant HepG2 cells expressing p-gp after 24 hrs by MTT assay; type: functional, cell-based; conditions: HepG2, 24 h
HepG2 [28] = assay: Effect on nonphosphorylated SAPK/JNK level in human doxorubicin-resistant HepG2 cells expressing p-gp at 25 uM by Western blot analysis; type: ADME, cell-based; conditions: hepg2, 25 µM
HepG2 [29] = assay: Induction of apoptosis in human HepG2 cells assessed as activation of caspase-3/8/9 at 12.5 after 24 hrs by Western blotting in presence of Z-LEHD-FMK; type: functional, cell-based
[30] = biological target: T1, MAP kinase p38 (Homo sapiens); assay: Inhibition of p38 MAPK phosphorylation in human doxorubicin-resistant HepG2 cells expressing p-gp at 1.56 to 25 uM by Western blot analysis; type: cell-based
HepG2 [31] = assay: Induction of necrosis in human doxorubicin-resistant HepG2 cells expressing p-gp assessed as LDH leakage at 25 uM after 24 hrs; type: functional, cell-based

Chain of ATP-dependent translocase ABCB1 (P08183 whole entry): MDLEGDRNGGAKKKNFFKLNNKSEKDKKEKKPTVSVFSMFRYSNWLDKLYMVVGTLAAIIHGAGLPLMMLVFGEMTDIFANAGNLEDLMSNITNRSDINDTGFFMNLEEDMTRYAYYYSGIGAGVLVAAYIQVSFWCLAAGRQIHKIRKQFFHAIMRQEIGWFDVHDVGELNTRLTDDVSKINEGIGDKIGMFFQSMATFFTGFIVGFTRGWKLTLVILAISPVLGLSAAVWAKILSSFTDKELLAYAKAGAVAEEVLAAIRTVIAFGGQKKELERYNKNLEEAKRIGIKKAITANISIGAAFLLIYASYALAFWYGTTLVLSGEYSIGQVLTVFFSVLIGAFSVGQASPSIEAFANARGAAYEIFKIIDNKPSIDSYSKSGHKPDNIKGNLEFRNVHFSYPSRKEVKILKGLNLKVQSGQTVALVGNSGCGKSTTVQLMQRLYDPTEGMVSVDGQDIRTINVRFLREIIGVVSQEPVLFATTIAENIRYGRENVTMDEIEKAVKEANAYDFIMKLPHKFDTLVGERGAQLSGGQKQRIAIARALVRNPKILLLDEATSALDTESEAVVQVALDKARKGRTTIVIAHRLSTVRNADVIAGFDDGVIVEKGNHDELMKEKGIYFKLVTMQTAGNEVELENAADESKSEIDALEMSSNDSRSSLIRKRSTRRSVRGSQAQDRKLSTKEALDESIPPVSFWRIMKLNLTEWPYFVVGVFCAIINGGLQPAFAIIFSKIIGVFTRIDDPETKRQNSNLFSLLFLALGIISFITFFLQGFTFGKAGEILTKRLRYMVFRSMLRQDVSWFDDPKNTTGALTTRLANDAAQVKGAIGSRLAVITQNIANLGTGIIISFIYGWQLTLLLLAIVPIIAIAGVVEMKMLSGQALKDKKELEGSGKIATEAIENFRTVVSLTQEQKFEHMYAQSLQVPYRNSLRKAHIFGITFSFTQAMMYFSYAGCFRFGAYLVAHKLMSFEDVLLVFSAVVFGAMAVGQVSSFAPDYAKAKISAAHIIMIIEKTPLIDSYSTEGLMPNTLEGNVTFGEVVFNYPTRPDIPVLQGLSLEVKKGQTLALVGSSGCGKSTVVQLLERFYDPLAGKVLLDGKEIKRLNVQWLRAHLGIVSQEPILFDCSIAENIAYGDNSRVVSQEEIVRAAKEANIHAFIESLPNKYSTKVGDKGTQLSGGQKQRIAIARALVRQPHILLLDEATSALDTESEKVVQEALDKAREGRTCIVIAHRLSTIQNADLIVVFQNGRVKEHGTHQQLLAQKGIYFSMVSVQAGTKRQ
Chain of Mitogen-activated protein kinase; ERK1/ERK2 (Homo sapiens) (P27361 whole entry, looked up): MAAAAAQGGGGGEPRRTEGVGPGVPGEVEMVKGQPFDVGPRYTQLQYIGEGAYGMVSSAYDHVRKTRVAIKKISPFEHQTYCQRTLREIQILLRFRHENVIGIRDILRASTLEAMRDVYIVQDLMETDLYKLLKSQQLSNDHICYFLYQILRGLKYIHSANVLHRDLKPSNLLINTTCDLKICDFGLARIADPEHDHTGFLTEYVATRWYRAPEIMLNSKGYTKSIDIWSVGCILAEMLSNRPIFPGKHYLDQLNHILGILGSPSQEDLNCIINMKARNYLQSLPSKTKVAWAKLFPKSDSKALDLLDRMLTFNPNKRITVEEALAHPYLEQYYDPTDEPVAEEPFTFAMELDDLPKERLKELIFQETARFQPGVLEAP
Chain of Mitogen-activated protein kinase; ERK1/ERK2 (Homo sapiens) (P28482 whole entry, looked up): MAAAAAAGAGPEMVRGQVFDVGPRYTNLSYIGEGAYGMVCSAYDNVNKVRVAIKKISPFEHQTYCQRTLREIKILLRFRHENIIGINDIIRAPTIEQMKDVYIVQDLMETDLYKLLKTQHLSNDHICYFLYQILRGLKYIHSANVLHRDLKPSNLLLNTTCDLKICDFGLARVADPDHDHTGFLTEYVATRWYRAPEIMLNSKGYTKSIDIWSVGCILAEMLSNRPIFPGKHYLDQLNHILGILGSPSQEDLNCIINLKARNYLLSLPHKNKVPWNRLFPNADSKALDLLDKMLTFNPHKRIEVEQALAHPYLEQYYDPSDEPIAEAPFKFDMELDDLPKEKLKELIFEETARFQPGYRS

CC(C)C1=Cc2ccc3c(c2C(=O)C1=O)CCCC3(C)C [MILTIRONE]
active: Activity (HepG2 [5]) | Activity (HepG2 [6]) | Activity (HepG2 [10]) | Activity (HepG2 [11]) | Activity (HepG2 [13]) | inhibition (HepG2 [15]) | Activity (HepG2 [16]) | Activity (HepG2 [20]) | inhibition [21] | Activity (HepG2 [25]) | inhibition [30]
1.2 µmol: Activity (HepG2 [18])
1.56: CI (HepG2 [19])
3.5 µmol: Activity (HepG2 [24])
4.92: pEC50 (HepG2 [27])
2.4 µmol: Activity (HepG2 [3])
inactive: Activity (HepG2 [1]) | inhibition (HepG2 [2]) | Activity (HepG2 [4]) | inhibition [7] | inhibition [8] | Activity (HepG2 [9]) | Activity (HepG2 [14]) | Activity (HepG2 [22]) | Activity (HepG2 [23]) | Activity (HepG2 [29]) | Activity (HepG2 [31])
Active: inhibition (INH) [17]
Non-toxic: Activity (HepG2 [12]) | Activity (HepG2 [26]) | Activity (HepG2 [28])

From ChEMBL document CHEMBL3608289, “Miltirone Is a Dual Inhibitor of P-Glycoprotein and Cell Growth in Doxorubicin-Resistant HepG2 Cells” (J Nat Prod, 2015)
